Where “and” joins values, the source holds several entries; their conditions need not be identical. Identical values can stand only once. Like-named read-outs stand apart in the source and are kept apart here.
What was measured:
P. putida KT2440 [1] = format: cell-based, Pseudomonas putida KT2440; conditions: Fig. 4j
Protocol: The bacterial strains used in this study are listed in Supplementary Data 1. E. coli and its derivatives were cultured in Luria–Bertani (LB) broth at 37 °C and 180 rpm. P. putida KT2440 and its derivatives were grown in minimal salt mediums (MSMs) containing different carbon sources at 30 °C and 200 rpm. Antibiotics were used at the following concentrations: tetracycline at 30 μg mL^−1; kanamycin at 50 μg mL^−1; ampicillin at 100 μg mL^−1; spectinomycin, at 50 μg mL^−1; and chloramphenicol at 40 μg mL^−1.

P. putida KT2440 [2] = format: cell-based, Pseudomonas putida KT2440

OC[C@H]1OC(O)[C@H](O)[C@@H](O)[C@@H]1O (stereo partly shown) [Glucose, glucose]
Growth (P. putida KT2440 [1]; DlhgO, 0 h): 0.077 and 0.079 and 0.073 | Growth (P. putida KT2440 [1]; DlhgO, 2 h): 0.083 and 0.078 and 0.075 | Growth (P. putida KT2440 [1]; DlhgO, 4 h): 0.24 and 0.208 and 0.228 | Growth (P. putida KT2440 [1]; DlhgO, 6 h): 0.666 and 0.603 and 0.661 | Growth (P. putida KT2440 [1]; DlhgO, 8 h): 1.5 and 1.401 and 1.461 | Growth (P. putida KT2440 [1]; DlhgO, 10 h): 3.165 and 3.065 | Growth (P. putida KT2440 [1]; DlhgO, 12 h): 3.835 and 3.65 and 3.86 | Growth (P. putida KT2440 [1]; DlhgO, 14 h): 3.605 and 3.535 and 3.66 | Growth (P. putida KT2440 [1]; DlhgO, 16 h): 3.66 and 3.5 and 3.7 | Growth (P. putida KT2440 [1]; WT, 0 h): 0.077 and 0.08 and 0.081 | Growth (P. putida KT2440 [1]; WT, 2 h): 0.079 and 0.092 | Growth (P. putida KT2440 [1]; WT, 4 h): 0.25 and 0.292 and 0.281 | Growth (P. putida KT2440 [1]; WT, 6 h): 0.635 and 0.605 and 0.701 | Growth (P. putida KT2440 [1]; WT, 8 h): 1.404 and 1.446 and 1.5 | Growth (P. putida KT2440 [1]; WT, 10 h): 2.675 and 2.785 and 2.9 | Growth (P. putida KT2440 [1]; WT, 12 h): 3.11 and 3.205 and 3.1 | Growth (P. putida KT2440 [1]; WT, 14 h): 3.13 and 3.115 and 3.035 | Growth (P. putida KT2440 [1]; WT, 16 h): 3.015 and 3.115 and 3.15 | Extracellular L-2-HG accumulation (P. putida KT2440 [2]; DlhgO, 0 h, Fig. 4l): 0.0018 and 0.00159 and 0.00178 | Extracellular L-2-HG accumulation (P. putida KT2440 [2]; DlhgO, 2 h, Fig. 4k): 0.00214 and 0.00144 and 0.00151 | Extracellular L-2-HG accumulation (P. putida KT2440 [2]; DlhgO, 2 h, Fig. 4l): 0.00161 and 0.00173 and 0.00155 | Extracellular L-2-HG accumulation (P. putida KT2440 [2]; DlhgO, 4 h, Fig. 4l): 0.00126 and 0.00158 and 0.00143 | Extracellular L-2-HG accumulation (P. putida KT2440 [2]; DlhgO, 6 h, Fig. 4k): 0.0027 and 0.00158 and 0.00192 | Extracellular L-2-HG accumulation (P. putida KT2440 [2]; DlhgO, 6 h, Fig. 4l): 0.00592 and 0.00434 and 0.00414 | Extracellular L-2-HG accumulation (P. putida KT2440 [2]; DlhgO, 8 h, Fig. 4l): 0.00588 and 0.0049 and 0.00675 | Extracellular L-2-HG accumulation (P. putida KT2440 [2]; DlhgO, 10 h, Fig. 4k): 0.00624 and 0.00847 and 0.00636 | Extracellular L-2-HG accumulation (P. putida KT2440 [2]; DlhgO, 10 h, Fig. 4l): 0.00724 and 0.00794 and 0.00631 | Extracellular L-2-HG accumulation (P. putida KT2440 [2]; DlhgO, 12 h, Fig. 4k): 0.0023 and 0.00219 and 0.00146 | Extracellular L-2-HG accumulation (P. putida KT2440 [2]; DlhgO, 12 h, Fig. 4l): 0.0051 and 0.00546 and 0.00628 | Extracellular L-2-HG accumulation (P. putida KT2440 [2]; DlhgO, 14 h, Fig. 4l): 0.00618 and 0.0058 and 0.00573 | Extracellular L-2-HG accumulation (P. putida KT2440 [2]; DlhgO, 16 h, Fig. 4k): 0.00357 and 0.00321 and 0.00356 | Extracellular L-2-HG accumulation (P. putida KT2440 [2]; DlhgO, 16 h, Fig. 4l): 0.00553 and 0.0046 and 0.00552 | Extracellular L-2-HG accumulation (P. putida KT2440 [2]; WT, 0 h, Fig. 4k): 6.56E-04 and 9.68E-04 and 7.73E-04 | Extracellular L-2-HG accumulation (P. putida KT2440 [2]; WT, 0 h, Fig. 4l): 9.79E-04 and 0.00104 and 6.27E-04 | Extracellular L-2-HG accumulation (P. putida KT2440 [2]; WT, 2 h, Fig. 4k): 1.95E-04 and 2.26E-04 and 1.15E-04 | Extracellular L-2-HG accumulation (P. putida KT2440 [2]; WT, 2 h, Fig. 4l): 0.00114 and 7.97E-04 and 9.51E-04 | Extracellular L-2-HG accumulation (P. putida KT2440 [2]; WT, 4 h, Fig. 4l): 5.39E-04 and 5.72E-04 and 5.29E-04 | Extracellular L-2-HG accumulation (P. putida KT2440 [2]; WT, 6 h, Fig. 4l): 0.00521 and 0.00557 and 0.00468 | Extracellular L-2-HG accumulation (P. putida KT2440 [2]; WT, 8 h, Fig. 4k): 0.00293 and 0.00233 and 0.00276 | Extracellular L-2-HG accumulation (P. putida KT2440 [2]; WT, 8 h, Fig. 4l): 0.0081 and 0.00438 and 0.0052 | Extracellular L-2-HG accumulation (P. putida KT2440 [2]; WT, 10 h, Fig. 4l): 0.00453 and 0.00483 and 0.00472 | Extracellular L-2-HG accumulation (P. putida KT2440 [2]; WT, 12 h, Fig. 4l): 0.00448 and 0.00573 and 0.00522 | Extracellular L-2-HG accumulation (P. putida KT2440 [2]; WT, 14 h, Fig. 4k): 0.00683 and 0.00582 and 0.00462 | Extracellular L-2-HG accumulation (P. putida KT2440 [2]; WT, 14 h, Fig. 4l): 0.0046 and 0.00456 and 0.00492 | Extracellular L-2-HG accumulation (P. putida KT2440 [2]; WT, 16 h, Fig. 4k): 0 | Extracellular L-2-HG accumulation (P. putida KT2440 [2]; WT, 16 h, Fig. 4l): 0.00403 and 0.00579 and 0.0044

Reference: article PMC8206213, “An L-2-hydroxyglutarate biosensor based on specific transcriptional regulator LhgR” (Nature Communications, 2021)
